Values of other authors in patent US20040076968A1, “Method for detecting pre-disposition to hepatotoxicity” (priority 2000, published 2004).

Target: T1, UGT1A6*2 allelic variant (Homo sapiens, UniProt P19224, R184S/T181A)
T1 sequence (P19224 27-532 T181A/R184S): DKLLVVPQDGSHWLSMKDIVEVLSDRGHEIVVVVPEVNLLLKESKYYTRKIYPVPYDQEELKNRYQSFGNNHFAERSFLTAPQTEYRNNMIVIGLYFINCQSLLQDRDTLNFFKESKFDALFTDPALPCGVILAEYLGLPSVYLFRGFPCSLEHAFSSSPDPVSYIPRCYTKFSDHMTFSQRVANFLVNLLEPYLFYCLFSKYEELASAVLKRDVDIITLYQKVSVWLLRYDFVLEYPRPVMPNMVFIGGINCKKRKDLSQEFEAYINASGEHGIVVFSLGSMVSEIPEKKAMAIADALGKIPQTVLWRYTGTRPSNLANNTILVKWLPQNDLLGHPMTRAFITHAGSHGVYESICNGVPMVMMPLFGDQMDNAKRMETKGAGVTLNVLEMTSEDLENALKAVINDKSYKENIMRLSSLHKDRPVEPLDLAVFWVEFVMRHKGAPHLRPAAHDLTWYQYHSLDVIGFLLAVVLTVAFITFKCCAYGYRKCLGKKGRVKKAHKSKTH
Conditions: cited from earlier work; for metabolism compared with wild-type isoenzyme (in words): UGT1A6*2 expressed in COS cells

| SMILES | metabolism compared with wild-type isoenzyme (in words) | further results |
| --- | --- | --- |
| Oc1cccc2ccccc12 [1-Naphtol] | normal levels |  |
| COc1ccc(O)c(C(C)(C)C)c1 [butylated hydroxy anisole] |  | rate of metabolism relative to the wild-type isoenzyme (pH 6.4): 27-75% |
| N[C@@H](Cc1ccc(O)c(O)c1)C(=O)O [levodopa] |  | activity of UGT1A6 alleles Thr181Ala and Arg184Ser for the substrate: reduced activity |
| O=c1ccc2ccc(O)cc2o1 [7-hydroxycoumarin] | normal levels |  |
| Oc1cccc(I)c1 [3iodophenol] | normal levels |  |
| Cc1cc(=O)oc2cc(O)ccc12 [7-hydroxy-4-methylcoumarin] | normal levels |  |
